From patent US20110118202A1, “Molecules which Bind to the Dimerization Initiation Site (DIS) of HIV RNA, Their Synthesis and Their Applications as Drugs” (priority 2006, published 2011)
Entries after “also recorded” stand apart in the source; their conditions may differ.

Columns and labels:
[1] = system: subtype A DIS in RNA1-615 (HIV-1 MAL genomic RNA); experiment: DMS footprinting of aminoglycosides on RNA1-615 (subtype A DIS); assay type: binding; settings: for protection of A280 against methylation by DMS: 10 μM and above; for protection of A280 against methylation by DMS / protection against methylation by DMS: RNA1-615; for protection against methylation by DMS: even at 100 μM
Protocol: (§1) Materials and Methods: Chemical footprinting experiments were performed on a 23-mer subtype A SL1 RNA or on RNA1-615, which corresponds to nucleotides 1-615 of HIV-1 Mal genomic RNA (Ennifar et al., J. Biol. Chem. 2003 278:2723-2730). Chemical modification was carried out either with dimethyl sulfate (DMS, Fluka) to test the accessibility of N1-A and N3-C positions or with lead acetate (Merck), which selectivity cleaves the subtype A DIS loop between the first and second nucleotides.
(§2) The binding of aminoglycosides to DIS can be detected through several biochemical methods: it induces protection toward chemical modification with dimethyl sulfate (DMS) or toward a specific cleavage in the subtype A promoted by lead (II); it also induces slower migration on non-denaturated gel.
Residues A272 and A280 of RNA1-615 are unpaired in the kissing-loop complex and are methylated by DMS at their N1 position. As previously observed (Baudin et al., J. Mol. Biol. 1993, 229:382-397; Paillart et al., J. Mol. Biol. 1997, 270:36-49), A280 is more reactive than A272, even though the latter nucleotide is flipped out of the helix, while the former is stacked inside the structure. […] On the other hand, A272, which is flipped out of the kissing-loop complex was not protected against methylation by DMS (FIG. 22B). […] Thus, even though these compounds bound to short DIS RNA in the same way as neomycin and lividomycin (FIGS. 19A and 19B), they were unable to efficiently recognize this target in the context of a large RNA.

[2] = system: subtype B kissing-loop complex; experiment: DMS footprinting, subtype B DIS; assay type: binding, HIV-1; settings: NL4.3 sequence
Protocol: as §1
The dimeric molecules also protect from DMS modification as neomycin (FIG. 10).
In addition, none of the 4,5-disubstituted DOS was bound to the subtype B kissing-loop complex.

[3] = system: DIS kissing-loop complex of RNA1-615 (HIV-1 MAL, subtype A DIS); experiment: Competition experiment: exchange of RNA 1-615 homodimer with RNA 1-311 (heterodimer formation); assay type: biochemical; settings: for heterodimer formation after addition of RNA1-311: 100 μM aminoglycoside, fivefold excess RNA1-311, up to one hour; for heterodimer formation after addition of RNA1-311 / heterodimer formed compared with dimer 12: 37° C.; for heterodimer formed compared with dimer 12: FIG. 14; for exchange of preformed RNA homodimers (1-615/1-615) with RNA (1-311): FIG. 13
Protocol: Materials and Methods: In a typical experiment, unlabeled 1-615 RNA (400 nM), together with a corresponding internally labeled RNA (3-5 nCi), were heated for 2 min at 90° C., chilled for 2 min on ice, and dimerization was initiated by addition of 2 μl of 5-fold concentrated dimerization buffer (final concentration: 50 mM sodium cacodylate, pH 7.5, 300 mM KCl, 5 mM MgCl2). After incubation at 37° C. for 20 min, 100 μM of aminoglycosides were added to the RNA mixture and incubation was continue for 15 min. Then, RNA 1-311 was added as a competitor and sample were collected at 2, 5, 10, 15, 20, 30, and 60 min and analyzed on 0.8% agarose gels (45 mM Tris borate pH 8.3, 01 mM MgCl2) at 4° C. Gels were fixed in TCA 10%, dried, and analyzed using a BAS 2000 Bio-Imager (Fuji).
The kissing-loop complex of radiolabeled RNA1-615 was formed, and then aminoglycosides at a 100 AM concentration were added. Next, a fivefold excess of unlabeled RNA1-311, encompassing nucleotides 1 to 311 of HIV-1 MAL genomic RNA, that also contains the subtype A DIS and is thus able to form a heterodimer with RNA1-615, was added (FIG. 24). Due to the dynamic nature of the kissing-loop complex, in the absence of aminoglycoside, greater than half of the radioactive material was shifted in the heterodimer within two minutes, and the RNA1-615 homodimer almost completely disappeared upon prolonged incubation. […] This observation is in keeping with the crystal structures showing that 4,5-disubstituted DOS form a bridge between the two RNA molecules (FIG. 18).
The aminoglycosides have also been investigated in solution. Their ability to stabilize the loop-loop interaction was investigated through competition experiments. Preformed RNA homodimers (1-615/1-615) were placed in the presence of the same but shorter RNA (1-311), and the kinetic of their exchanges was followed in the presence, or not, of aminoglycosides (FIG. 13).

[4] = system: subtype A DIS of HIV-1 genomic RNA; experiment: In situ DMS footprinting in infected CEMx174 cells and virions, subtype A DIS; settings: infected cells and viral particles; 3 mM aminoglycoside in culture
[5] = system: subtype B DIS of HIV-1 genomic RNA; experiment: In situ DMS footprinting in infected CEMx174 cells and virions, subtype B DIS; settings: infected cells and viral particles; 3 mM aminoglycoside in culture
[6] = system: subtype A DIS kissing-loop complex (23-mer RNA); experiment: Lead(II)-induced cleavage of the DIS loop, 23-mer RNA (footprinting); assay type: binding, HIV-1; settings: for inhibition of lead-induced cleavage of the subtype A DIS loop: 25 μM aminoglycoside; for inhibition of lead-induced cleavage of the DIS loop, relative efficiency: FIG. 21
Protocol: as §1, §2
At this stage, it was unclear if this class of compound is able to bind to the DIS kissing-loop complex. To compare binding of 4,5-disubstituted and 4,6-disubstituted DOS, a 23-mer RNA corresponding to the subtype A DIS, which was allowed to dimerize in conditions permitting crystallization of the kissing-loop complex, was used. As previously shown, lead (II) induced a specific cleavage in the subtype A DIS loop that is sensitive to the binding of aminoglycoside (FIG. 21).

[7] = system: DIS kissing-loop complex in RNA1-615 (HIV-1 MAL genomic RNA, subtype A DIS); experiment: Lead-induced cleavage of RNA1-615, primer extension assay; assay type: binding
Protocol: as §1
To evaluate the capacity of 4,5-disubstituted DOS to bind to the DIS kissing-loop complex in a larger RNA presenting numerous unspecific binding sites, RNA1-615, which corresponds to nucleotides 1 to 615 of the HIV-1 MAL genomic RNA, was used.

[8] = system: subtype F kissing-loop complex; experiment: DMS footprinting, subtype F DIS in the context of RNA1-615; assay type: binding, HIV-1
[9] = system: subtype F DIS of HIV-1 genomic RNA; experiment: In situ DMS footprinting in infected CEMx174 cells and virions, subtype F DIS; settings: infected cells and viral particles; 3 mM aminoglycoside in culture
[10] = system: ribosomal A site; settings: Wong et al., Chem. Biol. 1998; cited from earlier work
[11] = subtype A, loop adenine A280 and guanine G274

Row | Compound | protection from DMS modification ([1]; Mal sequence) | interaction seen by DMS modification [2] | heterodimer formation after addition of RNA1-311 [3] | heterodimer formed compared with dimer 12 [3] | exchange of preformed RNA homodimers (1-615/1-615) with RNA (1-311) [3] | reduction of alkylation (DMS) of A280 of the subtype A DIS [4] | protection of A280 against DMS methylation of subtype B DIS [5] | protection from DMS modification [1, 11] | inhibition of lead-induced cleavage of the subtype A DIS loop [6] | inhibition of lead-induced cleavage between A272 and G273 ([7]; 50 μM) | protection of A280 against methylation by DMS [1] | binding to the subtype F kissing-loop complex by DMS footprinting [8] | reduction of alkylation (DMS) of A280 of the subtype F DIS [9] | inhibition of lead-induced cleavage of the DIS loop, relative efficiency [6] | inhibition of lead-induced cleavage between A272 and G273 ([7]; even at 100 μM) | protection against methylation by DMS [1] | affinity for the ribosomal A site [10]
1 | NC[C@@H]1O[C@H](O[C@H]2[C@@H](O)[C@H](O[C@@H]3[C@@H](O)[C@H](N)C[C@H](N)[C@H]3O[C@H]3O[C@H](CO)[C@@H](O)[C@H](O)[C@H]3N)O[C@@H]2CO)[C@H](N)[C@@H](O)[C@@H]1O [paromomycin] | protect from DMS modification the bases implicated in the interaction | no significant interaction | only minimal amounts of heterodimer were formed | twice less heterodimer | almost totally abolish the exchange | more than two-fold | did not protect A280 | – | – | – | – | – | – | – | – | – | –
2 | NC[C@H]1O[C@H](O[C@H]2[C@H](O)[C@@H](O[C@H]3O[C@H](CO)[C@@H](O)[C@H](N)[C@H]3O)[C@H](N)C[C@@H]2N)[C@H](N)C[C@@H]1O [tobramycin] | – | – | – | – | – | – | – | no protection | – | – | – | – | – | – | – | – | –
3 | NC[C@@H]1O[C@H](O[C@H]2[C@@H](O)[C@H](O[C@@H]3[C@@H](O)[C@H](N)C[C@H](N)[C@H]3O[C@H]3O[C@H](CO)[C@@H](O)C[C@H]3N)O[C@@H]2CO)[C@H](N)[C@@H](O)[C@@H]1O[C@H]1O[C@H](CO)[C@@H](O)[C@H](O)[C@@H]1O [lividomycin] | – | – | only minimal amounts of heterodimer were formed | twice less heterodimer | almost totally abolish the exchange | more than two-fold | did not protect A280 | – | completely inhibited | almost completely inhibited | strongly protected A280 against methylation | efficiently bound | more than two-fold | – | – | – | –
4 | NC[C@H]1O[C@H](O[C@H]2[C@H](O[C@@H]3O[C@H](CO)[C@@H](O)[C@H]3O)[C@@H](O)[C@H](N)C[C@@H]2N)[C@H](N)[C@@H](O)[C@@H]1O [ribostamycin] | – | – | – | – | – | – | – | – | – | – | – | did not bind | – | less efficient | no inhibition | no protection against methylation | –
5 | NC[C@H]1O[C@H](O[C@H]2[C@H](O)[C@@H](O)[C@H](N)C[C@@H]2N)[C@H](N)[C@@H](O)[C@@H]1O [neamine] | – | – | – | – | – | – | – | – | – | – | – | did not bind | – | less efficient; also recorded: inhibited cleavage at lower concentration than the tricyclic ribostamycin | no inhibition | no protection against methylation | higher affinity than ribostamycin
6 | NCC1O[C@H](O[C@@H]2C(N)C[C@@H](N)C(O)[C@H]2O[C@@H]2O[C@H](CO)C(O[C@H]3O[C@H](CN)[C@@H](O)C(O)C3N)[C@@H]2O)C(N)[C@@H](O)[C@@H]1O (some centres unmarked) [neomycin] | protect from DMS modification the bases implicated in the interaction | no significant interaction | only minimal amounts of heterodimer were formed | twice less heterodimer | almost totally abolish the exchange | more than two-fold | did not protect A280 | protects from DMS modification the loop adenine A280 and the guanine G274 | completely inhibited | almost completely inhibited | strongly protected A280 against methylation | efficiently bound | more than two-fold | equally inhibited | – | – | –
